# Test results as given in a melting point compilation (Tetko et al.; mined from patent text by program, amines drawn as free bases though some values may be those of a salt).
row,Compound,melting point
1,C=CC(C)(C)C(O)(COc1ccc(-c2ccccc2)cc1)Cn1cncn1 (stereo not given),85 to 87 °C
2,CCOC(=O)C1(C)C=C(Cl)C2=NCN(C)C2=N1 (stereo not given),56 to 58 °C
3,CC(C)(C)c1cc(CC(Cc2cc(C(C)(C)C)c(O)c(C(C)(C)C)c2)[N+](=O)[O-])cc(C(C)(C)C)c1O,161 to 165 °C
4,CNC(=O)CCc1cn(Cc2ccc(C(=O)O)cc2OC)c2cc(C(=O)NCC3CCCC3)ccc12,274 to 275 °C
5,CC(C)P1(=O)NCc2ccccc21 (stereo not given),149 to 151 °C
6,Cc1ccc(-c2cccc(/C=C/C(=O)Nc3ccc(CO)cc3)c2)cc1,220 to 223 °C
7,O=C1C=C(O)CC(c2ccccc2)N1 (stereo not given),166 to 169 °C
8,Cc1ccc(-c2cc(C(F)(F)F)nn2-c2ccc(S(=O)(=O)NO)cc2)cc1,203 °C
9,CCCCNc1cc(C(=O)O)cc(S(N)(=O)=O)c1Sc1ccc(N)cc1,232 to 234 °C
10,Cc1cc2c3c(c1)C(=O)C(=O)N3CCC2,188 °C
11,CC(=O)Nc1nc(CCCCl)cs1,110 to 112 °C
12,Cc1c(NC(=O)c2ccc(OC[C@@H]3CCCO3)cc2)ccc2cc(CN[C@H](C)C(C)(C)C)cnc12,140 to 141 °C
13,COc1ccc(-c2cc(=O)c3c(O)cc(O)cc3o2)cc1OCC(O)CO (stereo not given),215 to 218 °C
14,CCOc1cc2cc(CO)cc(-c3ccnc(Cl)c3)c2cc1OCC,135 to 137 °C
15,CC1(C)Oc2ccc(C#N)cc2[C@@H](NC(=O)c2ccc(C(F)(F)F)cc2)[C@@H]1O (relative stereo),225 °C
16,COc1ccc(-n2c(-c3sc(Nc4ccccc4)nc3C)nc3ccccc3c2=O)cc1,265 to 266 °C
17,COc1ccc2nc(C(=O)NCC(=O)O)c(OCc3ccccc3)cc2c1,118 °C
18,CC(C)OC(=O)C(C)Oc1ncn(-c2ccc(Cl)cc2Cl)n1 (stereo not given),55 to 57 °C
19,CC(=O)OC1CCC2(C)C(CCC3C4CCC(C(C)=O)C4(C)CC4OC432)C1 (stereo not given),133 to 136 °C
20,COC(=O)c1cc(Br)c(O)c(Br)n1,148 to 150 °C
21,Nc1ncnc2cccc(Oc3ccc(F)cc3)c12,188 to 190 °C
22,O=C(CSc1ccc(C(F)(F)F)cn1)C12CC3CC(CC(C3)C1)C2,141 to 142 °C

row,Compound,melting point
1,COc1ccc2nc3ccc(CC(=O)O)cn3c(=O)c2c1,281 to 282 °C
2,C=CCOc1ccccc1C1C=NNC(=O)C1 (stereo not given),93 to 95 °C
3,Cn1c(=O)[nH]c(N)c(NCc2ccccc2)c1=O,206 to 218 °C
4,O=C(O)c1ccc(OCCOc2ccccc2)cc1,198 to 199 °C
5,CCCCc1c(C(=O)N(C)Cc2ccc3c(Br)c(O)ccc3c2)oc2ccccc12,53 to 56 °C
6,CCCc1nc2c(N)nc3ccccc3c2n1CCCC(N)=O,249 to 251 °C
7,O=C1NC(=O)C(=Cc2cc(O)c(O)c([N+](=O)[O-])c2)S1,295 to 298 °C
8,O=Cc1ccc2c(ccc3c4ccccc4ccc23)c1,215 to 216 °C
9,Cn1nnnc1CC(O)(Cn1cncn1)c1ccc(Cl)cc1Cl (stereo not given),182 to 184 °C
10,C#Cc1ccc2c(c1)C(=O)CC(C)(C)S2,63 to 66 °C
11,CCOC(=O)Cc1cc2ccc(O)cc2oc1=O,168 to 170 °C
12,CCCCCCCCc1cnc(-c2ccc(C#N)cc2)nc1,66.1 to 66.5 °C
13,COc1cc2c(Nc3ccc(C)c(OC(C)=O)c3)ncnc2cc1OCc1cccnc1,113 to 115 °C
14,CC(CCl)(CCl)c1cc(Cl)nnc1Cl,92 to 94 °C
15,CCOC(=O)Cc1sc(Sc2nccc(C)c2C(=O)O)nc1C,169 to 171 °C
16,COc1ccc(-c2c(OCCN3CCOCC3)c3ccccc3oc2=O)cc1,104 °C
17,CO[C@H]1CCN(C(=O)c2cc(-c3ccccc3)c(=O)n3c2-c2sccc2C3)C1,159 to 162 °C
18,CCCOc1ccc(-c2scc(-c3ccccc3Cl)c2CC(=O)NC(=N)NCCCO)c(C)c1,103 to 106 °C
19,CC(C)C(=O)Nc1cccc(-c2ccnc3c(C(=O)c4ccco4)cnn23)c1,189 to 191 °C
20,Clc1ccc2oc(C3CCNCC3)cc2c1,77 to 78 °C
21,COc1ccc2c(c1)CCc1cc(Nc3ccccc3N)ccc1C2=O,200 °C
22,CCOC(=O)C(=O)Nc1coc2ccc(Cl)cc2c1=O,161 to 162 °C

row,Compound,melting point
1,CCC(=O)Nc1ccc(C)c(O)c1C,140 °C
2,CCn1ncc2c(O)c(C(=O)O)c(CCc3ccccc3)nc21,160 to 161 °C
3,CS(=O)(=O)Nc1ccc(C(=O)Cc2ccccc2)cc1Sc1ccc(F)cc1F,120 to 122 °C
4,Cc1cc(-n2cnn(Cc3ccc(F)cc3)c2=O)sc1C(=O)NCc1ncco1,163 to 165 °C
5,Cc1cc(Cl)cc(C(=O)NCC(C)S(C)=O)c1NC(=O)c1cc(C(F)(F)F)nn1-c1ncccc1Cl (stereo not given),229 to 232 °C
6,CN1Cc2c(/C=C\Cl)ncn2-c2ccccc2C1=O,197 to 199 °C
7,C=CCc1c(O)ccc2ccc(OCC(=O)OC)cc12,128 to 130 °C
8,OC(c1ccc(F)cc1)(c1ccc(F)cc1)C1CCN(CCCOc2ccc(Cl)cc2)CC1,92 to 93 °C
9,CCCCc1c(-c2ccccc2)nc(N)nc1-c1ccccc1,154 to 155 °C
10,CC#COc1cccc2oc3ccccc3c(=O)c12,168 to 169 °C
11,C(=Cc1ccccc1)CN1CCN(C2c3ccccc3Sc3ccccc32)CC1,115 to 117 °C
12,CN(C(=S)N[C@@H](Cc1ccc(NC(=O)c2c(Cl)cncc2Cl)cc1)C(=O)O)c1ccccc1C(=O)NCC1CCCCC1,175 °C
13,CCSc1nsc(NC(=O)N(C)C)c1C(N)=O,147 °C
14,Cc1cc2c(c3c1NC(=O)CC3)O[C@@H](CN)[C@H]2C (racemic),> 300 °C
15,O=c1cc(CCO)c2cc(F)ccc2n1Cc1cc(Br)c(Br)c(Br)c1,135 to 140 °C
16,C[C@@H](CO)Cn1c(C(=O)NCc2cc(C(F)(F)F)cc(C(F)(F)F)c2)c(-c2ccccc2)c2cccnc2c1=O,101 to 103 °C
17,CCCCc1c2c(nn1C)c(N)nc1ccccc12,202 to 203 °C
18,ClCCCOc1ccccc1Cc1cccc2[nH]ccc12,75 °C
19,CCOc1cc2c(O)c(C)cnc2nc1C,238 to 242 °C
20,COc1ccc(-c2nccc3c(C)cccc23)cc1,60.4 to 60.8 °C
21,O=C1CC(Cl)C(=O)N1c1ccccc1 (stereo not given),117 to 118 °C

# The next lines start with the values.
row,melting point,Compound
1,140 to 144 °C,N#Cc1ccc(-n2c(N)nc3ccccc32)cc1-c1ccoc1
2,140 to 142 °C,Cc1nc(CC(=O)NCc2cccc3c2C(=O)N(C2CCC(=O)NC2=O)C3=O)c(C)s1 (stereo not given)
3,70 to 71 °C,Clc1ncnc2c1ncn2C1CCCCO1 (stereo not given)
4,291 °C,N#Cc1c(N)nc2ccc(N3CCOCC3)cc2c1O
5,104 to 105 °C,COc1cc2ncnc(N3CCN(C(=S)NCc4ccc(C(C)(C)C)cc4)CC3)c2cc1OC
6,233 °C,O=S1(=O)c2ccccc2Cc2ccc(-c3nnn[nH]3)cc21
7,166 to 169 °C,CC1(C)CCc2cc(S(=O)(=O)n3c(CCCC(=O)O)cc4cc(Cl)ccc43)ccc2O1
8,122 to 123 °C,Nc1ccc(CCC(=O)N(c2ccccc2)c2ccccc2)cc1N
9,125 to 126 °C,CCOc1nn(Cc2ccc(OCc3nc(-c4ccccc4)oc3C)cc2)cc1CC(=O)O
10,154 °C,Cn1cncc1C(O)(c1ccc(Cl)cc1)c1ccc2nc(C#Cc3ccccc3)cc(-c3cccc(Cl)c3)c2c1 (stereo not given)
11,> 300 °C,CCNC(=O)Nc1nc2cc(-c3cccnc3)cc(C(=O)NC)n2n1
12,114 to 115 °C,COC(OC)C(=O)CC(C)(C)C(Cc1c(C)c(Br)cn1S(=O)(=O)c1ccc(C)cc1)[N+](=O)[O-] (stereo not given)
13,26 °C,CN(C)CCC(CCO)c1ccncc1 (stereo not given)
14,201 to 203 °C,CCOC(=O)c1cc2c3n(ccc-2n1)CC(C)=N3
15,153 to 156 °C,CC(C)(C)CC(C)(C)c1cc(N=Nc2cc([N+](=O)[O-])ccc2Cl)c(O)c(C(C)(C)c2ccccc2)c1
16,195 to 196 °C,Cc1ccc(C(=O)NCCO)cc1-n1c(C)cc(OCc2ccccc2CNC(=O)Nc2cc(C(C)(C)C)nn2-c2ccc(O)c(Cl)c2)c(Cl)c1=O
17,120 °C,COC(=O)c1ccc(C)c(SC(=O)c2ccc3c(c2)C(C)(C)CCC3(C)C)c1
18,162 to 164 °C,CC(=O)OCc1ccc2oc(=O)c(C(=O)Oc3cc([N+](=O)[O-])ccc3[N+](=O)[O-])cc2c1

row,melting point,Compound
1,121 °C,CCOC(=O)C(C)N(c1ccc(S(=O)(=O)c2ccccc2)cc1C(F)(F)F)S(C)(=O)=O (stereo not given)
2,134 to 136 °C,CCOC(=O)CSc1n[nH]c(=S)[nH]1
3,132 to 133 °C,N#Cc1cccc(-c2nc(N3CCC(O)C3)cc3cccnc23)c1 (stereo not given)
4,214 to 216 °C,O=C(Nc1ccc(S(=O)(=O)c2ccccc2)cc1)C1(O)CCCC1
5,108 to 112 °C,CC1CCCN(c2cc3nc(C(C)(C)C)sc3cc2N)C1 (stereo not given)
6,224 to 227 °C,CC12CCC3c4ccc(C(=O)O)cc4CCC3C1CCC2C(=O)CCc1ccc(F)cc1 (stereo not given)
7,128 to 131 °C,CCCCOC(=O)N[C@H]1C(=O)N[C@H]1CO (relative stereo)
8,85 °C,COC(=O)c1cccc(S(=O)(=O)Cc2c(O[C@H](Cn3ccnc3)c3ccccc3)ccc3c2CCCC3=O)c1
9,303 °C,COc1cc2[nH]nc(S(C)=O)c(=O)c2cc1OC (stereo not given)
10,187 to 190 °C,O=C(NC(=O)c1ccccc1)NC1CCC(=O)c2sccc21 (stereo not given)
11,42 to 43 °C,CCONC(CC)=C1C(=O)CC(CCSc2ccc(Cl)cc2)CC1=O (stereo not given)
12,100 °C,CCOC(=O)[C@@](CC)(CCCNCCc1c[nH]c2ccc(F)cc12)C(OCC)OCC
13,88 to 91 °C,C[C@@H]1Cc2ccsc2[C@H](C)N1CCNC(=O)c1ccc(C(F)(F)F)cc1 (relative stereo)
14,132 to 135 °C,CC(C)(C)C(=O)C(Cl)NC(=O)c1ccc(Cl)cc1 (stereo not given)
15,60.7 °C,CCN(CC)C(=O)C=Cc1ccc(Cl)c(Cl)c1
16,204 °C,CC(C)C(=O)N[C@H]1CC[C@H](CCN2CCN(c3nccc4c3OCC4)CC2)CC1
17,168 to 169 °C,O=C(O)CS(=O)(=O)c1ccc2c(-c3ccccc3F)noc2c1
